# Measurements reported in ChEMBL document CHEMBL1135229, “Novel potent antagonists of human neuropeptide Y Y5 receptors. Part 3: 7-methoxy-1-hydroxy-1-substituted tetraline derivatives” (Bioorg Med Chem Lett, 2002).
# Target: T1, Neuropeptide Y receptor type 1 (Homo sapiens, UniProt P25929)
# T1 sequence (P25929 whole entry): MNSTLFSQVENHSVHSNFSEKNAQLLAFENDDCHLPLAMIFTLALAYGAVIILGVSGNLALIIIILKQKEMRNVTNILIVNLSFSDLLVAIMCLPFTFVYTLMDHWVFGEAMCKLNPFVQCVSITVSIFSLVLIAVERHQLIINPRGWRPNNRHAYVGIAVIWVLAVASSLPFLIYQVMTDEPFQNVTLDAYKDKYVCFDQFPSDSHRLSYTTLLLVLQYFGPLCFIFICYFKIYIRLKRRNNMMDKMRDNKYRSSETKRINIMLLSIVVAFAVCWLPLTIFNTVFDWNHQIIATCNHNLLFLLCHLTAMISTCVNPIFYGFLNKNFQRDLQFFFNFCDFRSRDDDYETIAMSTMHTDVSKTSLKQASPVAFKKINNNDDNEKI
# Assay: Compound was evaluated for the inhibitory activity against human Neuropeptide Y receptor type 1
row,Compound,IC50 [nM]
1,COc1ccc2c(c1)CC(NCC1CCN(C(=O)Cn3c(=O)sc4ccc(Cl)cc43)CC1)CCC2 (stereo not drawn),12000

# Target: T2, Neuropeptide Y receptor type 5 (Homo sapiens, UniProt Q15761)
# T2 sequence (Q15761 whole entry): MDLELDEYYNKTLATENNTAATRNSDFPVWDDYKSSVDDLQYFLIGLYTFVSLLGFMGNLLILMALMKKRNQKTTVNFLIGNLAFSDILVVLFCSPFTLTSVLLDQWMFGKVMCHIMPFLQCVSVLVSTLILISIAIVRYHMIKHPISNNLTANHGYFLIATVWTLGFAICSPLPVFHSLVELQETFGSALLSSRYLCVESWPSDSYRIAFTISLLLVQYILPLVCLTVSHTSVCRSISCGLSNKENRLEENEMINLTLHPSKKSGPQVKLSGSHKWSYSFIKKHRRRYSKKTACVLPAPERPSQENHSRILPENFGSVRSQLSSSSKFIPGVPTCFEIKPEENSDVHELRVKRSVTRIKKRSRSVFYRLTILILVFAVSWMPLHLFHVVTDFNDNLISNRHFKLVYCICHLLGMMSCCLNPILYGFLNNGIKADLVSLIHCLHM
# Assay: Inhibition of 125 I-PYY binding to human Neuropeptide Y receptor type 5
row,Compound,IC50 [nM]
1,COc1ccc2c(c1)CC(NCC1CCN(C(=O)CNS(=O)(=O)c3cccc4ccccc34)CC1)CCC2 (stereo not drawn),3.7
2,COc1ccc2c(c1)C(O)(CNCC1CCN(CCNS(=O)(=O)c3cccc(Cl)c3C)CC1)CCC2 (stereo not drawn),11
3,COc1ccc2c(c1)C(O)(CNC(=O)C1CCN(C(=O)Cn3c(=O)sc4ccc(Cl)cc43)CC1)CCC2 (stereo not drawn),1
4,COc1ccc2c(c1)C(O)(CNCC1CCN(C(=O)Cn3c(=O)sc4ccc(Cl)cc43)CC1)CCC2 (stereo not drawn),28
5,COc1ccc2c(c1)CC(CNC(=O)C1CCN(C(=O)Cn3c(=O)sc4ccc(Cl)cc43)CC1)CCC2 (stereo not drawn),1.2
6,COc1ccc2c(c1)C(O)(CNCC1CCN(CCNS(=O)(=O)c3cccc4ccccc34)CC1)CCC2 (stereo not drawn),0.54
7,COc1ccc2c(c1)C(O)(CNCC1CCN(CCNS(=O)(=O)c3cccc(C)c3)CC1)CCC2 (stereo not drawn),13
8,COc1ccc2c(c1)CC(O)(CNCC1CCN(CCNS(=O)(=O)c3cccc4ccccc34)CC1)CCC2 (stereo not drawn),56
9,COc1ccc2c(c1)CC(NCC1CCN(C(=O)Cn3c(=O)sc4ccc(Cl)cc43)CC1)CCC2 (stereo not drawn),0.7
10,COc1ccc2c(c1)C(O)(CNCCC1CCN(CCNS(=O)(=O)c3cccc4ccccc34)CC1)CCC2 (stereo not drawn),24
11,O=C(Nc1nccs1)C1CCN(C(=O)Cn2c(=O)sc3ccc(Cl)cc32)CC1 [FR-73966],53
12,COc1ccc2c(c1)C(O)(CNCC1CCN(CCNS(=O)(=O)c3cccc4ccccc34)CC1)CC2 (stereo not drawn),66
